{
  "source": "patent US20110092456A1",
  "about": "“Methods of increasing cAMP levels and uses thereof” (priority 2009, published 2011)",
  "key": {"myocardial adenosine": {"system": "myocardial adenosine", "assay": "Myocardial adenosine levels (HPLC)", "type": "in vivo, rat", "settings": "rats; 3-day oral pretreatment; result in words", "procedure": "Adenosine 5′ triphosphate [γ32P] […] Adenosine was analyzed by high performance liquid chromatography (HPLC) according to the procedure of Wojcik and Neff {Wojcik, 1982 #325}. […] The protein concentration was determined by Lowry assay. Ten volumes of 0.25 M Ba(OH)2 was added and the samples were centrifuged at 30,000×g for 10 minutes. The supernatants were then transferred to a conical tube and 5 μl of chloroacetaldehyde added to 20 μl of supernatant. The tubes were capped, mixed and submerged in a boiling water bath for 10 min. The samples were analyzed by HPLC using a Waters C18 reversed phase 150 mm×4.6 mm column. […] The excitation monochromator was set to a wavelength of 270 nm and the cutoff wavelength of the emission filter was 389 nm."}, "PTEN": {"system": "PTEN", "assay": "Western blot of myocardial PTEN", "type": "in vivo, rat", "settings": "rats, 3-day oral pretreatment, immunoblot, result in words", "procedure": "(§1) Adenosine 5' triphosphate [γ32P] […] The supernatant was collected and the total protein concentration was determined using Lowry Protein Assay. The protein samples were subjected to SDS-PAGE with 4-20% gradient polyacrylamide gel and transferred to pure nitrocellulose membrane (0.45 μm) (Bio-Rad). After blocking with 5% skim milk in Tris-buffered saline, the membrane was incubated overnight at 4° C. with primary antibodies against eNOS, Akt, […]-eNOS, […]-eNOS, […]-Akt, and PTEN, and secondarily with HRP-conjugated anti-mouse or anti-rabbit antibodies. The immunoblots were developed using ECL western Blotting Detection Reagent (Amersham). The protein signals were pictured by an image-scanner and analyzed using Image J software (National Institutes of health, USA). The strength of each signal was normalized to the corresponding β-actin stain signal. Data are expressed as a ratio between the protein and the corresponding β-actin signal density."}, "[1]": {"system": "rat model of myocardial ischemia-reperfusion injury", "assay": "Rat myocardial ischemia-reperfusion infarct size protocol", "type": "in vivo", "settings": "rats; for infarct size (as a percentage of the AR): FIG. 1, 3-day oral pretreatment; for infarct size: 3-day oral pretreatment (atorvastatin 2 mg/kg/d, cilostazol 20 mg/kg/d)", "procedure": "Adenosine 5′ triphosphate [γ32P]\nHearts were excised and the left ventricle was sliced transversely into 6 sections. Slices were weighed and incubated for 15 minutes at 37° C. in 1% buffered (pH=7.4) 2,3,5-triphenyl-tetrazolium-chloride (TTC), fixed in a 10% formaldehyde and photographed in order to identify the AR (uncolored by the blue dye), the infarct size (unstained by TTC), and the non-ischemic zones (colored by blue dye). The area of AR and infarct size in each slice were determined by planimetry, converted into percentages of the whole for each slice, and multiplied by the weight of the slice and the results summed to obtain the weight of the myocardial AR and infarct size."}, "Akt [2]": {"system": "Akt", "assay": "Western blot of myocardial Akt", "type": "in vivo, rat", "settings": "rats, 3-day oral pretreatment, immunoblot, result in words", "procedure": "as §1"}, "eNOS [3]": {"system": "eNOS", "assay": "Western blot of myocardial eNOS", "type": "in vivo, rat", "settings": "rats, 3-day oral pretreatment, immunoblot, result in words", "procedure": "as §1"}, "calcium dependent NOS": {"system": "calcium dependent NOS", "settings": "atorvastatin 3-day pretreatment, 1 mg/kg/d; cited from earlier work"}, "myocardial infarct size [4]": {"system": "myocardial infarct size", "settings": "3-day pretreatment, cited from earlier work"}, "[5]": {"settings": "rat; 16 hours after the third dose, 10 mg/kg/d; cited from earlier work"}, "eNOS [6]": {"system": "eNOS", "settings": "atorvastatin 3-day pretreatment, 1 mg/kg/d; cited from earlier work"}, "[7]": {"system": "permanent middle cerebral artery occlusion", "settings": "mouse; 30 mg/kg intraperitoneally three times (12 h before, 1 h before, just after ischemia); cited from earlier work"}, "[8]": {"system": "cAMP-dependent protein kinase (PKA)", "assay": "Myocardial protein kinase A (PKA) activity, rat", "type": "in vivo", "settings": "rats; 3-day oral pretreatment; myocardial samples; result in words"}, "myocardial infarct size [9]": {"system": "myocardial infarct size", "settings": "rabbit; intravenous 1 mg/kg/min for 5 min before myocardial ischemia; cited from earlier work"}, "[10]": {"settings": "cited from earlier work"}, "[11]": {"settings": "41 patients; cilostazol 200 mg/d versus aspirin 250 mg/d; cited from earlier work"}, "[12]": {"system": "middle cerebral artery occlusion", "settings": "rat, cited from earlier work"}, "Akt [13]": {"system": "Akt", "settings": "rat; oral 30 mg/kg after 2 hours of middle cerebral artery occlusion; cited from earlier work"}, "[14]": {"settings": "30 min ischemia, 4 h reperfusion, mean±SEM"}},
  "note": "Entries after “also recorded” stand apart in the source; their conditions may differ. Where two headings read alike, the source gives them in different places.",
  "data": [
    {"smiles": "CC(C)c1c(C(=O)Nc2ccccc2)c(-c2ccccc2)c(-c2ccc(F)cc2)n1CC[C@@H](O)C[C@@H](O)CC(=O)O", "note": "[atorvastatin]", "values": [
      {"measurement": "myocardial adenosine levels", "setting": "myocardial adenosine", "value": "small increase in myocardial adenosine levels"},
      {"measurement": "myocardial PTEN levels", "setting": "PTEN", "value": "no effect"},
      {"measurement": "infarct size (as a percentage of the AR)", "setting": "[1]; result in words", "value": "did not affect infarct size"},
      {"measurement": "infarct size", "setting": "[1]; [14]", "value": "128 ± 8", "unit": "mg"},
      {"measurement": "infarct size", "setting": "[1]; result in words", "value": "did not affect infarct size"},
      {"measurement": "myocardial levels of Ser-473 P-Akt", "setting": "Akt [2]", "value": "small, statistically significant effect"},
      {"measurement": "myocardial total Akt levels", "setting": "Akt [2]", "value": "did not affect"},
      {"measurement": "myocardial levels of Ser-1177 P-eNOS", "setting": "eNOS [3]", "value": "but not on Ser-1177 P-eNOS and Ser-633 P-eNOS levels; also recorded: did not increase"},
      {"measurement": "myocardial total eNOS levels", "setting": "eNOS [3]", "value": "did not affect"},
      {"measurement": "calcium dependent NOS activity", "setting": "calcium dependent NOS", "value": "did not affect"},
      {"measurement": "infarct size", "setting": "myocardial infarct size [4]; 1 mg/kg/d", "value": "did not limit infarct size"},
      {"measurement": "infarct size", "setting": "myocardial infarct size [4]; oral, 2 mg/kg/d", "value": "does not affect infarct size"},
      {"measurement": "infarct size", "setting": "myocardial infarct size [4]; oral, 10 and 75 mg/kg/d", "value": "reduces infarct size"},
      {"measurement": "blood levels of atorvastatin", "setting": "[5]", "value": "comparable to those seen in humans treated with atorvastatin 80 mg/d"},
      {"measurement": "myocardial levels of P-eNOS", "setting": "eNOS [6]", "value": "did not affect"}
    ]},
    {"smiles": "O=C1CCc2cc(OCCCCc3nnnn3C3CCCCC3)ccc2N1", "note": "[cilostazol]", "values": [
      {"measurement": "myocardial adenosine levels", "setting": "myocardial adenosine", "value": "small increase in myocardial adenosine levels"},
      {"measurement": "brain infarct size measured at 24 h", "setting": "[7]", "value": "reduced brain infarct size"},
      {"measurement": "cAMP-dependent protein kinase (PKA) activity", "setting": "[8]", "value": "significantly increased"},
      {"measurement": "myocardial PTEN levels", "setting": "PTEN", "value": "significantly reduce PTEN levels"},
      {"measurement": "myocardial PTEN levels", "setting": "PTEN; listed as CIL", "value": "significantly decreased"},
      {"measurement": "effect of preconditioning by 2 min of ischemia", "setting": "myocardial infarct size [9]", "value": "potentiates the effect of preconditioning"},
      {"measurement": "myocardial infarct size", "setting": "myocardial infarct size [9]", "value": "does not affect myocardial infarct size"},
      {"measurement": "6-month restenosis rate", "setting": "[10]; 50 patients, primary stenting for ST elevation acute myocardial infarction, cilostazol 100 mg BID versus aspirin alone", "value": 0, "unit": "%"},
      {"measurement": "in-stent stenosis", "setting": "[10]; 70 patients, Palmaz-Schatz stenting, cilostazol 200 mg/d, aspirin 81 mg/d", "value": 8.6, "unit": "%"},
      {"measurement": "6-month restenosis after successful coronary stenting", "setting": "[10]; CREST, cilostazol 100 mg bid, all patients on clopidogrel 30 days and aspirin 6 months", "value": 22.0, "unit": "%"},
      {"measurement": "9-month target lesion revascularization rate per patient", "setting": "[10]; RACTS trial, cilostazol 100 mg bid 6 months, ticlopidine 250 mg bid 1 month", "value": 22.9, "unit": "%"},
      {"measurement": "infarct size (as a percentage of the AR)", "setting": "[1]; result in words", "value": "significantly smaller than in the control group"},
      {"measurement": "infarct size", "setting": "[1]; [14]", "value": "56 ± 4", "unit": "mg"},
      {"measurement": "infarct size", "setting": "[1]; result in words", "value": "reduced infarct size; also recorded: significant reduction in infarct size"},
      {"measurement": "6-month angiographic outcomes", "setting": "[11]", "value": "better 6-month angiographic outcomes than aspirin"},
      {"measurement": "minimal lumen diameter at follow-up", "setting": "[11]", "value": "larger"},
      {"measurement": "percent diameter stenosis", "setting": "[11]", "value": "smaller"},
      {"measurement": "plaque area (intravascular ultrasound)", "setting": "[11]", "value": "smaller"},
      {"measurement": "myocardial levels of Ser-473 P-Akt", "setting": "Akt [2]", "value": "augmented myocardial levels"},
      {"measurement": "myocardial total Akt levels", "setting": "Akt [2]", "value": "did not affect"},
      {"measurement": "myocardial levels of Ser-473 P-Akt", "setting": "Akt [2]; listed as CIL", "value": "significantly increased"},
      {"measurement": "myocardial levels of Ser-633 P-eNOS", "setting": "eNOS [3]", "value": "augmented myocardial levels"},
      {"measurement": "myocardial levels of Ser-1177 P-eNOS", "setting": "eNOS [3]", "value": "augmented myocardial levels"},
      {"measurement": "myocardial total eNOS levels", "setting": "eNOS [3]", "value": "did not affect"},
      {"measurement": "myocardial levels of Ser-633 P-eNOS", "setting": "eNOS [3]; listed as CIL", "value": "significantly increased"},
      {"measurement": "myocardial levels of Ser-1177 P-eNOS", "setting": "eNOS [3]; listed as CIL", "value": "significantly increased"},
      {"measurement": "brain infarct size", "setting": "[12]; 2 h occlusion, 24 h reperfusion, oral cilostazol 30 mg/kg, aspirin 300 mg/kg, clopidogrel 30 mg/kg", "value": "reduced brain infarct size"},
      {"measurement": "brain infarct size", "setting": "[12]; oral 30 mg/kg at 5 min and 4 h after completion of 2 hours of middle cerebral artery occlusion", "value": "reduces brain infarct size"},
      {"measurement": "Akt phosphorylation", "setting": "Akt [13]", "value": "augmented Akt phosphorylation"}
    ]}
  ]
}
